The record followed here is PubChem BioAssay AID511.

In this test the target is Arf-GAP with GTPase, ANK repeat and PH domain-containing protein 2 (Homo sapiens) (UniProt Q99490). In words: ligand binding to human centaurin gamma 1 – biophysical, DSF, SYPRO orange, recombinant protein (AID 511). The following applies: recombinant CENTG1, DSF SYPRO orange Tm shift; at 50000 µM; protein 4.5 µM; buffer 100 mM HEPES; pH 7.5; NaCl 150 mM; active compounds read high.
Chain of Arf-GAP with GTPase, ANK repeat and PH domain-containing protein 2 (Homo sapiens) (Q99490 whole entry, looked up, the tested form may be a part): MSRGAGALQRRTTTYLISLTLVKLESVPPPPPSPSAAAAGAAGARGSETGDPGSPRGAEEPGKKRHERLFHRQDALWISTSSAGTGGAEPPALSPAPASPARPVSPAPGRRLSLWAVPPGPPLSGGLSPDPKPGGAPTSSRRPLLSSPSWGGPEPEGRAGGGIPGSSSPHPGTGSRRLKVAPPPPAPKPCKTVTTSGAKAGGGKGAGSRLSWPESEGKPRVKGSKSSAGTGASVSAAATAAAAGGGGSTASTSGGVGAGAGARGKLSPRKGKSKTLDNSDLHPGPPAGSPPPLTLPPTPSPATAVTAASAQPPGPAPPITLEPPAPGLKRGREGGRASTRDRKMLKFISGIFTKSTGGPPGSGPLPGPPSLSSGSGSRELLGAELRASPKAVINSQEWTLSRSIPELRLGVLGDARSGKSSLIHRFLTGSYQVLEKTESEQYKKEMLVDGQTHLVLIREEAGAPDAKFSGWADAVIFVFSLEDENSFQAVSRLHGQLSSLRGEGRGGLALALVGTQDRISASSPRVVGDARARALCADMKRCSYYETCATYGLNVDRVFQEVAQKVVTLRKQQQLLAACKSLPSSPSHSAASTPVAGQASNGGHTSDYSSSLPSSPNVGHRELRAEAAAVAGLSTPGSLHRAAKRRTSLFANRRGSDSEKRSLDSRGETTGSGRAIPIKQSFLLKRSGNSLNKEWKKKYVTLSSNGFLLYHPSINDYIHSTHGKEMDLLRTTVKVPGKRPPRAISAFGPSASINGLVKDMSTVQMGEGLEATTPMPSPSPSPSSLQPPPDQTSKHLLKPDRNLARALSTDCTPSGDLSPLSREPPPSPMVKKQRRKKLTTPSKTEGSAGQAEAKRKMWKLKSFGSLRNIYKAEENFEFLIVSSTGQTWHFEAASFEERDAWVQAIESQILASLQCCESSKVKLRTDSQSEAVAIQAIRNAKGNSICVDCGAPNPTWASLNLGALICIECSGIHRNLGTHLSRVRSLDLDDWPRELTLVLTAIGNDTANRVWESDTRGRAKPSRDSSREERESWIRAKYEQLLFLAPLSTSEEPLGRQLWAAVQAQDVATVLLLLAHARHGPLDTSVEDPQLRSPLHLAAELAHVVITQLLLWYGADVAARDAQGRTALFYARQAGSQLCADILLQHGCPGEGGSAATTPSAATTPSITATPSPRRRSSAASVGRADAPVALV

As to `NC(CS)C(=O)O` (stereo unspecified), the Tm shift was 3.9 Celsius.
